Earlier results as cited in US20190060287A1 (ADARE PHARMACEUTICALS, INC., priority 2017, published 2019).
Where two headings read alike, the source gives them in different places.

Tests used:
[1] = multiple dose controlled clinical studies

For `Clc1ccc2nsnc2c1NC1=NCCN1` [tizanidine, Tizanidine], the “patients reporting that they had been drowsy during the 6 hour study” value (single dose 8 mg) is given as 76%, the “patients reporting that they had been drowsy during the 6 hour study” value (single dose 16 mg) is given as 92% and the “patients reporting sedation as a secondary event” value ([1]; patients receiving any dose of tizanidine) is given as 48%. For the same molecule, the “cases in which the sedation was rated as severe” value ([1]; share of the sedation cases) was 10%.
